What was measured:
[1] = tested on: human naïve state stem cells; experiment: stem cell drug screening assay on naïve state stem cells; type: cell-based; details: 6 uM, 3 days
Experimental: (§1) The stem cell screening assay, was performed in both the presence and absence of the stem cell growth factors: NME7AB for growing naïve stem cells or FGF for growing primed stem cells. If the cognate growth factor was present, then the biological or small molecule would have to compete away the growth factor to get an effect. Therefore, we expected to see more of an effect when the growth factor, FGF for primed stem cells or NME7AB or NME1 dimers for naïve stem cells, was absent. The effect of the compounds on stem cells was visually determined and compounds were ranked 0-4, with 4 being the greatest effect and 0 being no observable effect. The major effect that was observed was a change from pluripotent stem cell morphology, which is a cobblestone pattern of small round cells with a large nucleus to cytoplasm ratio, to that of differentiating stem cells, which are elongated, large and flattened cells with a smaller nucleus to cytoplasm ratio. […] The compounds were added to a final concentration of 6 uM to either naïve state stem cells or primed state stem cells. In this particular case, the naïve state stem cells were maintained in a naïve state by culturing in a media containing NME7AB or NME1 dimers. However, other methods such as 2i and 5i (Silva et al., 2008, Nichols and Smith, 2009, Theunissen et al., 2014)] can be used to maintain stem cells in a more naïve state. In this case primed state stem cells were cultured in bFGF over a layer of MEFs, although it is known that any bFGF containing media will maintain stem cells in the primed state.
Stem cells whether embryonic or induced pluripotent stem (iPS) cells were cultured in a minimal, serum-free media that contained human recombinant NME7AB at a concentration of 2-32 nM wherein 4-8 nM is preferred and 4 nM is more preferred. To facilitate surface attachment, cell culture plates were coated with an anti-MUC1* monoclonal antibody called MN-C3 or C3 or MN-C8 at a concentration of 2-100 ug/mL coating solution, wherein 3-50 ug/mL is preferred and 6-12.5 ug/mL is more preferred. In these experiments, 12.5 ug/mL of MN-C3 was used. Antibody coated plates were incubated at 4 degrees C. overnight prior to plating stem cells. A Rho kinase I inhibitor was added to enhance surface attachment. In some cases, NME7AB was substituted with human recombinant NME1 dimers which also induce stem cells to revert to a naïve-like state.
(§2) Human naïve state and primed stem cells were cultured in parallel for at least 5 passages to guarantee normal differentiation-free growth. The stem cells were plated in 12-well cell culture plates with 50,000 cells per well. Cells were cultured in their respective media, either bFGF media or NME7AB media for 24 hours. Media was then removed and replaced with media devoid of bFGF or NME7AB, when indicated. Agents being tested for their ability to induce differentiation of naïve stem cells were added to the media at the concentrations indicated. After 72 hours, photographs were taken see FIGS. 1-10.
(§3) Human naïve state and primed stem cells were cultured in parallel for at least 5 passages to guarantee normal differentiation-free growth. The stem cells were plated in 12-well cell culture plates with 50,000 cells per well. Cells were cultured in their respective media, either bFGF media or NME7AB media for 24 hours. Media was then removed and replaced with media devoid of bFGF or NME7AB. […] Media was changed after 48 hours and replaced with fresh media containing the BRD4 inhibitors. After 4 days the experiment was stopped. Photographs were taken and cell pellets collected for further analysis, see FIGS. 11-16.

[2] = tested on: human primed state stem cells; experiment: stem cell drug screening assay on primed state stem cells; type: cell-based; details: 6 uM, 3 days
Experimental: as §1
Stem cells whether embryonic or induced pluripotent stem (iPS) cells were cultured in a minimal, serum-free media that contained human recombinant bFGF at a concentration of 8 ng/mL. The stem cells were plated over a layer of inactivated mouse embryonic fibroblasts, aka MEFs, which secrete additional uncharacterized growth factors and cytokines.
as §2, §3

[3] = tested on: T47D breast cancer cells; experiment: cancer cell proliferation assay (Calcein live cell stain); type: cell-based, human; details: for inhibition of growth of T47D cells: live cell Calcein stain, 96 hours (FIG. 113)
Experimental: These analogs of MN1194 and 1186 were also tested in a cell growth assay (FIGS. 107A1-107H6 and FIG. 108A1-108H6, respectively). In this experiment, both parent compound and analogs thereof were added to normal cell culture media to final concentrations of 40 uM, 20 uM, 10 uM, 5 uM or 2.5 uM. For comparison, previously known cancer cell migration inhibitors SU11274 and MN1204 were included in the same experiment. […] Relative cell proliferation is quantified on a standard plate reader that reads the fluorescence of the Calcein that is taken up by live cells.
Small molecule inhibition of cancer cell proliferation studies were also performed on several cancer sub-types. […] The small molecules of the invention had the most robust effect on T47D breast cancer cells, which are highly positive for MUC1* growth factor receptor, and its activating ligands NME7AB and NME7-X1.
(§4) For the cancer cell proliferation experiment cancer cells were plated at constant densities (6000 cells/well) into a 96-well White-walled/Clear-bottom Tissue Culture Treated plate (Corning Incorporated, Big Flats, N.Y.). Small molecule analogs are added at T=24 hours in media with 2% FBS. Following the addition of the small molecules, the cells remain untouched for 120 hours with visual confirmations/inspections at 24, 48, 72 and 96 hours post plating. At the 120 hour mark a calcein fluorescence assay (Thermo Fisher Scientific, Waltham, Mass.) is performed on the plate. Calcein fluorescence (final concentration 0.5 uM) is used to assess cell viability. Cancer cell fluorescence is measured in a TECAN SAFIRE^2 spectrophotometer plate reader. The plate is then imaged using an Olympus IX71 fluorescence imaging microscope and montage of the resulting images are assembled using ImageJ.

[4] = tested on: DU145 MUC1* positive prostate cancer cells; experiment: cancer cell proliferation assay (Calcein); type: cell-based; details: 96 hours (FIG. 109)
Experimental: as §4, with “Small molecule inhibition of cancer cell proliferation studies were also performed on several cancer sub-types. […] The small molecules of the invention had the most robust effect on T47D breast cancer cells, which are highly positive for MUC1* growth factor receptor, and its activating ligands NME7AB and NME7-X1. […] For” for “For”

[5] = tested on: MDA-MB-453 breast cancer cells; experiment: cancer cell proliferation assay (Calcein); type: cell-based; details: 96 hours (FIG. 110)
Experimental: as §4, with “Small molecule inhibition of cancer cell proliferation studies were also performed on several cancer sub-types. […] The small molecules of the invention had the most robust effect on T47D breast cancer cells, which are highly positive for MUC1* growth factor receptor, and its activating ligands NME7AB and NME7-X1. […] For” for “For”

[6] = tested on: PC-3 MUC1* negative, NME7AB positive prostate cancer cells; experiment: cancer cell proliferation assay (Calcein); type: cell-based; details: 96 hours (FIG. 111)
Experimental: as §4, with “Small molecule inhibition of cancer cell proliferation studies were also performed on several cancer sub-types. […] The small molecules of the invention had the most robust effect on T47D breast cancer cells, which are highly positive for MUC1* growth factor receptor, and its activating ligands NME7AB and NME7-X1. […] For” for “For”

[7] = tested on: T47D breast cancer cells; experiment: cancer cell migration, invasion assay (Platypus/Oris system); type: cell-based, human; details: T47D, 120 hours
Experimental: We then tested an expanded panel of agents, including agents known to inhibit cancer growth or migration (FIG. 17) (Horm et al., 2012; Meng & Yue, 2014; Zhen et al., 2014), which is characteristic of aggressive or metastatic cancers. We also synthesized a series of novel small molecules, tested them in the stem cell drug screening assay, and then synthesized analogs of the best hits. These small molecules are pictured in FIGS. 18-27. Both the known compounds and the novel compounds were tested in the stem cell drug screening assay. The effects of the small molecules on naïve versus primed state stem cells are shown in the photographs of FIGS. 29-72. The small molecules pictured in FIGS. 17-27 and the biologicals were also tested in a cancer cell migration assay. A structure activity relationship table is seen in FIG. 28. Potent cancer cell migration is characteristic of cancer cell invasion of other tissues and of metastasis. Typical migration assays involve coating a cell culture plate with fibronectin, collagen or the like, plating cancer cells and making a scar across through the cells and measuring the time it takes for the cancer cells to invade the void space. An alternative approach that gives more reliable data is the Platypus System which is a special multi-well cell culture plate with a juxtaposed set of plugs that block off a circle in the center of each well. Cancer cells are plated while the plugs are in place, then they are removed after the cells attach to the plate surface. […] A bar graph summarizing the results of the known anti-migration compounds compared to the anti-MUC1* Fab E6 and the first few small molecules synthesized is shown in FIG. 73. The effect of two novel small molecules MN1186 and MN1194, compared to the known anti-migration molecule SU11274, is shown in FIG. 75A-75U. FIG. 75V is a graph showing the measured inhibition of cancer cell migration at time 0, 24 hours or 48 hours for a number of compounds. […] FIG. 75X is a graph showing how IC50's of the small molecules of the invention were measured and calculated.
Percent inhibition of cancer cell migration was performed in a wound healing assay. The Percent area that the invading cancer cells occupied, in the presence of a drug candidate compared to the controls, was quantified by Image J cell software which enables cell counting from photographs. IC50's were calculated by performing migration experiments at several compound concentrations and then applying Hill's equation. Inhibition of cancer cell proliferation was quantified by automated cell counting in the presence or absence of a drug candidate. Here, the potency of the drug candidate was simply scored 4 for the highest degree of inhibition and 0 for the lowest. […] The effect of each drug candidate was scored 0-4, with 4 being the highest in inhibiting cell proliferation (FIG. 28).
For the cancer cell migration experiment cancer cells were plated at varying densities into an Oris Cell Migration Assay Collagen-1 coated 96-well plate (Platypus Technologies LLC, Madison, Wis.). The Collagen-1 coated 96-well plate incorporates a specific vacuum plug which attaches to the bottom of each well, creating an area in which the cells cannot grow into. Once the cells have been plated at high densities into each well, they are allotted an 18-24 hour time period to attach to the bottom of the wells. Post-24 hour plugs are removed from the plate and then small molecule analogs are added to the wells. Images are taken of each well and represent time 0 (T=0) for each well. Images are taken of the wells at the 24, 48, 72, 96 and 120 hour time points. Data analysis is conducted using the images taken at these specific time point. Images are imported into ImageJ (Rasband, W. S., ImageJ, U. S. National Institutes of Health, Bethesda, Md., USA, http://imagej.nih.gov/ij/, 1997-2016.) and the area remaining free of cells is calculated. […]

Row | Structure (SMILES) | effect on naïve stem cell pluripotency, growth or differentiation (visually determined) [1] | effect on primed stem cell pluripotency, growth or differentiation (visually determined) [2] | inhibition of growth of T47D cells [3] | inhibition of growth of DU145 cells [4] | inhibition of growth of MDA-MB-453 cells [5] | inhibition of growth of PC-3 cells [6] | inhibition of cancer cell migration [7] | inhibition of cancer cell proliferation relative to parent compounds ([3]; T47D, Calcein assay after 120 hours, 40-2.5 uM)
1 | CCCCNC(=O)N1CCc2c([nH]c3ccccc23)C1C(C)c1ccccc1 (centres unmarked) [MN1130] | induced differentiation | modest effect | severely inhibited growth | inhibited the growth | inhibited the growth | inhibited the growth | – | –
2 | CC(C)CC1c2[nH]c3ccccc3c2CCN1C(=O)CCc1ccccc1 (centres unmarked) [MN1133] | – | – | severely inhibited growth | inhibited the growth | inhibited the growth | inhibited the growth | – | –
3 | CC(C)CC1c2[nH]c3cc(F)ccc3c2CCN1C(=O)CNC(=O)OC(C)(C)C (centres unmarked) [MN1227] | – | – | severely inhibited growth | inhibited the growth | inhibited the growth | inhibited the growth | improvements over MN1186 | inhibit cancer cell proliferation better than parent compounds
4 | CC(C)CC1c2[nH]c3ccccc3c2CCN1C(=O)C1CCC(CNC(=O)OC(C)(C)C)CC1 (centres unmarked) [MN1246] | – | – | severely inhibited growth | inhibited the growth | inhibited the growth | inhibited the growth | – | –
